Read-outs that look alike come from different tables or passages of the source. *1 amine or outer side, *2 acyl side, *3 side chain or, on linkers, in order; H or OH if unused. Where a SMILES comes first, the peptide text is derived from it. Bridges are numbered along the chain shown (N, C = ends). Roman numbers before positions name the chains, in order. [ ]: non-standard residue; d: D form. The star is where a group is joined. Actinocin(9to1) = Cc1c2oc3c(C)ccc(C(=O)[*:1])c3nc-2c(C(=O)[*:2])c(N)c1=O; NMeV = CN[C@H](C(=O)O)C(C)C; Cbz = O=C(OCc1ccccc1)*; Sar = CNCC(=O)O
Test system: HIF-1α
Experiment: Western blot of HIF-1α protein in PC3 cells (whole cell and nuclear extracts)
Type: cell-based, human
Method: LNCaP and PC3 prostate cancer cells were purchased from ATCC and were grown in DME medium supplemented with 2 mM L-glutamine, 100 IU/ml penicillin-streptomycin and 10% FCS (Sigma-Aldrich, St Louis, MO). For all the experiments, prostate cancer cell lines were serum starved for 18 h and then stimulated with poly(I:C) (InvivoGen, San Diego) in FCS-free medium. Human Umbilical Vein Endothelial Cells (HUVEC) were maintained in EGM®-2 complete medium (Lonza, Basel, Switzerland). Actinomycin D, cycloheximide and CoCl2 were from Sigma. MG-132 was from Calbiochem-Merk (Damstadt, Germany).
Cell lysates were prepared in cell lysis buffer (Cell Signaling, Danvers, MA). Equal amounts of proteins (40 µg) were subjected to SDS-polyacrylamide gel electrophoresis and transferred onto a nitrocellulose membrane saturated with 5% non-fat dry milk in Tris-buffered saline with 0.1% Tween-20 (T-TBS). Membranes were incubated with primary antibody and subsequently with horseradish peroxidase-conjugated (HRP) secondary antibody for 1 h at room temperature. Membranes were washed with T-TBS and developed using the chemiluminescence system (ECL; Amersham Bioscience, Piscataway, NJ). Antibody anti-HIF-1α was from BD biosciences (San Diego, CA), cleaved caspase-3 (Asp175) from Cell Signalling (Danvers, MA) and anti-β actin from Sigma. Secondary antibodies were HRP-conjugated goat anti-mouse or anti-rabbit (Bio-Rad, Hercules, CA). To perform Western blot of nuclear extracts, cells were washed in ice-cold PBS, scraped and collected in buffer A (10 mM Tris, pH 7.8, 1.5 Mm MgC12, and 10 mM KCl), and kept on ice for 10 min. before Dounce homogenization. Nuclei were then pelleted at 1000 g for 7 min. at 4°C, re-suspended in 150 µl ice-cold lysis buffer and incubated for 30 min. on ice in the presence of proteases inhibitor cocktail (Sigma) then stored at -80°C. Protein concentration was determined by the micro bicinchoninic acid (BCA) method (Pierce, Rockford, IL).
One day after plating (1 x 10^5 cells/ml), cells were transiently transfected with 1 µg of a plasmid encoding 1.3 isoform of hif-1α [6] or relative control plasmid (pcDNA3) or with 1 µg of a plasmid containing an interfering sequence targeting hif-1α (int.HIF-1α) or the relative control (int. scramble) previously described. Cells were transfected for 5 h with lipofectamine LTX/plus (Invitrogen, Carlsbad, CA) according to the manufacturer's protocol. Challenge with poly(I:C) was performed 18 h later.
To obtain stably transfected PC3 cells with non-functional TLR3, cells were transfected with 1 µg TLR3-dominant negative plasmid (TLR3-DN) (pZERO-hTLR3, Invivogen) or with 1 µg plasmid containing only the resistance to puromycin (pPURO), using lipofectamine LTX/plus as described above. 48 h later, the cells were trypsinized, and seeded at different dilutions onto 100-mm plates in complete DMEM supplemented with 2 µg/ml puromycin (Invivogen). After incubation at 37°C for 2 to 3 weeks, individual colonies were isolated using sterile cloning rings, trypsinized and plated onto 12-well plates. The clones obtained were expanded and maintained in DMEM supplemented with 2 µg/ml puromycin.

Cc1c2oc3c(C)ccc(C(=O)N[C@@H]4C(=O)N[C@H](C(C)C)C(=O)N5CCC[C@H]5C(=O)N(C)CC(=O)N(C)[C@@H](C(C)C)C(=O)O[C@@H]4C)c3nc-2c(C(=O)N[C@@H]2C(=O)N[C@H](C(C)C)C(=O)N3CCC[C@H]3C(=O)N(C)CC(=O)N(C)[C@@H](C(C)C)C(=O)O[C@@H]2C)c(N)c1=O [Act D, actinomycin D] (I: T[dV]P[Sar][NMeV] / II: T[dV]P[Sar][NMeV]; ester I:1-I:C, II:1-II:C; linker I:N-II:N via Actinocin(9to1))
effect on HIF-1α protein accumulation in cells treated with CoCl2 (PC3 cells, 100 µM CoCl2 3 h, Fig. 2B upper): did not inhibit
effect on poly(I:C)-dependent HIF-1α protein induction (PC3 cells, poly(I:C) 5 µg/ml about 6 h, inhibitor for 15 min (CHX 100 µg/ml, Act D 2 µg/ml), Fig. 2B upper): completely abolished

C[C@@H]1C[C@@H]([C@H](O)CC2CC(=O)NC(=O)C2)C(=O)[C@@H](C)C1 [CHX, cycloheximide]
effect on HIF-1α increase by CoCl2 combined with MG-132: not significantly inhibited
effect on HIF-1α increase by poly(I:C) in MG-132-treated cells: reverted the increase to the level of MG-132 alone
effect on HIF-1α protein accumulation in cells treated with CoCl2: did not inhibit
effect on poly(I:C)-dependent HIF-1α protein induction: completely abolished

CC(C)C[C@@H](C=O)NC(=O)[C@H](CC(C)C)NC(=O)[C@H](CC(C)C)NC(=O)OCc1ccccc1 [MG-132] (Cbz-Leu-Leu-Leu-aldehyde)
level of HIF-1α in the absence of poly(I:C) (PC3 cells, 5 µg/ml MG-132, 3 h, Fig. 2B lower): induced an increase
HIF-1α compared to CoCl2 alone (PC3 cells, CoCl2 combined with MG-132, Fig. 2B lower): greater increment

Reference: patent EP2558096B1, “COMBINATION OF HYPOXIA-INDUCIBLE FACTOR-1 INHIBITORS AND TOLL-LIKE RECEPTOR-3 AGONISTS FOR TREATING SOLID TUMORS” (Università degli Studi di Roma "La Sapienza", priority 2010, dated 2011)
